Assay results reported in ChEMBL document CHEMBL1201862, “PubChem BioAssay data set” (2004).
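Values below derive from 48-hour exposures of cells grown in 96-well plates, with endpoints linearly interpolated between the two concentrations bracketing the appropriate inhibition level. The concentration for 50% growth inhibition is given as GI50.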 Active and inactive are the calls of the source. Cut-off read from the data, not from the text of the source: active = GI50 up to about 1.1 µM and inactive = higher.

Experiments:
Assay in all cases: NCI tumour cell line growth inhibition, 48 h
COLO 205 = test system: COLO 205
UO-31 = test system: UO-31
EKVX = test system: EKVX
SR = test system: SR
LOX IMVI = test system: LOX IMVI
SK-OV-3 = test system: SK-OV-3
A498 = test system: A498
NCI-H522 = test system: NCI-H522
SK-MEL-2 = test system: SK-MEL-2
OVCAR-8 = test system: OVCAR-8
MDA-N = test system: MDA-N
M14 = test system: M14
TK-10 = test system: TK-10
ACHN = test system: ACHN
SF-268 = test system: SF-268
UACC-62 = test system: UACC-62
RPMI-8226 = test system: RPMI-8226
HOP-62 = test system: HOP-62
HCT-15 = test system: HCT-15
OVCAR-5 = test system: OVCAR-5
NCI-H23 = test system: NCI-H23
SK-MEL-28 = test system: SK-MEL-28
CAKI-1 = test system: CAKI-1
SF-295 = test system: SF-295
MDA-MB-435 = test system: MDA-MB-435
SF-539 = test system: SF-539
HT-29 = test system: HT-29
SW-620 = test system: SW-620
Malme-3M = test system: Malme-3M
MCF7 = test system: MCF7
NCI-H226 = test system: NCI-H226
UACC-257 = test system: UACC-257
IGROV-1 = test system: IGROV-1
A549 = test system: A549
NCI/ADR-RES = test system: NCI/ADR-RES
SN12C = test system: SN12C
U-251 = test system: U-251
OVCAR-4 = test system: OVCAR-4
KM12 = test system: KM12
DU-145 = test system: DU-145
HOP-92 = test system: HOP-92
K562 = test system: K562
MDA-MB-231 = test system: MDA-MB-231
SNB-75 = test system: SNB-75
786-0 = test system: 786-0
HCT-116 = test system: HCT-116
NCI-H460 = test system: NCI-H460
OVCAR-3 = test system: OVCAR-3
SK-MEL-5 = test system: SK-MEL-5
BT-549 = test system: BT-549
PC-3 = test system: PC-3
HCC 2998 = test system: HCC 2998
SNB-19 = test system: SNB-19
HL-60 = test system: HL-60
CCRF-CEM = test system: CCRF-CEM
RXF 393 = test system: RXF 393
MOLT-4 = test system: MOLT-4
Hs-578T = test system: Hs-578T
T47D = test system: T47D

CC(C)c1nccn1Cc1ccc(Cl)cc1Cl was tested, and the GI50 (COLO 205) was 29.2 µM (inactive), the GI50 (UO-31) was 24.9 µM (inactive) and the GI50 (EKVX) was 25.5 µM (inactive). The GI50 (SR) was 44.4 µM (inactive), the GI50 (LOX IMVI) was 43.6 µM (inactive) and the GI50 (SK-OV-3) was 47.9 µM (inactive). The GI50 (A498) was 55.5 µM (inactive), the GI50 (NCI-H522) was 21.2 µM (inactive) and the GI50 (SK-MEL-2) was 74.3 µM (inactive). The GI50 (OVCAR-8) was 46.2 µM (inactive), the GI50 (MDA-N) was 38.6 µM (inactive) and the GI50 (M14) was 38.1 µM (inactive). For the same compound, the GI50 (TK-10) was 37.6 µM (inactive), the GI50 (ACHN) was 83 µM (inactive) and the GI50 (SF-268) was 76.9 µM (inactive). For the same compound, the GI50 (UACC-62) was 43.8 µM (inactive), the GI50 (RPMI-8226) was 16 µM (inactive) and the GI50 (HOP-62) was 66.7 µM (inactive). The GI50 (HCT-15) was 42.4 µM, the GI50 (OVCAR-5) was 27.7 µM (inactive) and the GI50 (NCI-H23) was 27.4 µM (inactive). The GI50 (SK-MEL-28) was > 100 µM (inactive), the GI50 (CAKI-1) was 53.7 µM (inactive) and the GI50 (SF-295) was 14.5 µM (inactive). The GI50 (MDA-MB-435) was 49.7 µM (inactive), the GI50 (SF-539) was 61.2 µM (inactive) and the GI50 (HT-29) was 28.8 µM (inactive). The GI50 (SW-620) was 49.1 µM (inactive), the GI50 (Malme-3M) was 41.2 µM (inactive) and the GI50 (MCF7) was 34.1 µM (inactive). The GI50 (NCI-H226) was 22.4 µM (inactive), the GI50 (UACC-257) was 17.7 µM (inactive) and the GI50 (IGROV-1) was > 100 µM (inactive). For the same compound, the GI50 (A549) was 34.4 µM (inactive), the GI50 (NCI/ADR-RES) was 27 µM (inactive) and the GI50 (SN12C) was 26.5 µM (inactive). For the same compound, the GI50 (U-251) was 41.5 µM (inactive), the GI50 (OVCAR-4) was 52.5 µM (inactive) and the GI50 (KM12) was 30.5 µM (inactive). The GI50 (DU-145) was 14.8 µM (inactive), the GI50 (HOP-92) was 37.8 µM (inactive) and the GI50 (K562) was 79.1 µM (inactive). The GI50 (MDA-MB-231) was 81.5 µM (inactive), the GI50 (SNB-75) was 36.5 µM (inactive) and the GI50 (786-0) was 38 µM (inactive). The GI50 (HCT-116) was 16.3 µM (inactive), the GI50 (NCI-H460) was 34 µM (inactive) and the GI50 (OVCAR-3) was 27.2 µM (inactive). The GI50 (SK-MEL-5) was 12 µM (inactive), the GI50 (BT-549) was 64.1 µM (inactive) and the GI50 (PC-3) was 46.5 µM (inactive). The GI50 (HCC 2998) was 23.4 µM (inactive) and the GI50 (SNB-19) was 48.5 µM (inactive).

For Oc1cccc2cccnc12, the GI50 (SR) was 0.342 µM (active), the GI50 (RPMI-8226) was 0.918 µM (active) and the GI50 (HL-60) was 0.294 µM (active). The GI50 (IGROV-1) was 4.27 µM (inactive), the GI50 (SK-MEL-5) was 4.86 µM (inactive) and the GI50 (BT-549) was 61.1 µM (inactive).

In the case of C=C(Br)CN(CC(=C)Br)C(C)=O, the GI50 (COLO 205) is reported as > 100 µM (inactive), the GI50 (UO-31) is reported as > 100 µM (inactive) and the GI50 (EKVX) is reported as > 100 µM (inactive). The GI50 (CCRF-CEM) was > 100 µM (inactive), the GI50 (SR) was > 100 µM (inactive) and the GI50 (LOX IMVI) was > 100 µM (inactive). The GI50 (SK-OV-3) was > 100 µM (inactive), the GI50 (RXF 393) was > 100 µM (inactive) and the GI50 (A498) was > 100 µM (inactive). For the same compound, the GI50 (NCI-H522) was > 100 µM (inactive), the GI50 (SK-MEL-2) was > 100 µM (inactive) and the GI50 (OVCAR-8) was > 100 µM (inactive). The GI50 (MDA-N) was > 100 µM (inactive), the GI50 (M14) was > 100 µM (inactive) and the GI50 (TK-10) was > 100 µM (inactive). The GI50 (ACHN) was > 100 µM (inactive), the GI50 (SF-268) was > 100 µM (inactive) and the GI50 (UACC-62) was > 100 µM (inactive). For the same compound, the GI50 (RPMI-8226) was > 100 µM (inactive), the GI50 (HOP-62) was > 100 µM (inactive) and the GI50 (HCT-15) was over 100 µM. The GI50 (OVCAR-5) was > 100 µM (inactive), the GI50 (NCI-H23) was > 100 µM (inactive) and the GI50 (SK-MEL-28) was > 100 µM (inactive). For the same compound, the GI50 (CAKI-1) was > 100 µM (inactive), the GI50 (SF-295) was > 100 µM (inactive) and the GI50 (MDA-MB-435) was > 100 µM (inactive). For the same compound, the GI50 (MOLT-4) was > 100 µM (inactive), the GI50 (SF-539) was > 100 µM (inactive) and the GI50 (HT-29) was > 100 µM (inactive). The GI50 (SW-620) was > 100 µM (inactive), the GI50 (Malme-3M) was > 100 µM (inactive) and the GI50 (MCF7) was > 100 µM (inactive). The GI50 (NCI-H226) was > 100 µM (inactive), the GI50 (HL-60) was > 100 µM (inactive) and the GI50 (UACC-257) was > 100 µM (inactive). For the same compound, the GI50 (IGROV-1) was > 100 µM (inactive), the GI50 (Hs-578T) was > 100 µM (inactive) and the GI50 (T47D) was > 100 µM (inactive). The GI50 (A549) was > 100 µM (inactive), the GI50 (NCI/ADR-RES) was > 100 µM (inactive) and the GI50 (SN12C) was > 100 µM (inactive). For the same compound, the GI50 (U-251) was > 100 µM (inactive), the GI50 (OVCAR-4) was > 100 µM (inactive) and the GI50 (KM12) was > 100 µM (inactive). The GI50 (DU-145) was > 100 µM (inactive), the GI50 (K562) was > 100 µM (inactive) and the GI50 (MDA-MB-231) was > 100 µM (inactive). For the same compound, the GI50 (SNB-75) was > 100 µM (inactive), the GI50 (786-0) was > 100 µM (inactive) and the GI50 (HCT-116) was > 100 µM (inactive). For the same compound, the GI50 (NCI-H460) was > 100 µM (inactive), the GI50 (OVCAR-3) was > 100 µM (inactive) and the GI50 (SK-MEL-5) was > 100 µM (inactive). For the same compound, the GI50 (PC-3) was 81.8 µM (inactive), the GI50 (HCC 2998) was > 100 µM (inactive) and the GI50 (SNB-19) was 78.9 µM (inactive).
